Publication PMC5924788 (Frontiers in Chemistry, 2018)
Where two headings read alike, the source gives them in different places. Marks after values point to notes of the source that are not given here.

Assays:
AChE [1] = molecular target: T1, AChE (Electrophorus electricus, UniProt O42275); assay: AChE inhibition, Ellman's method; format: biochemical, Electrophorus electricus (electric eel)
T1 construct: purchased Sigma-Aldrich Química S. A
From the text: (§1) Acetylcholinesterase (AChE) from Electrophorus electricus (electric eel), butyrylcholinesterase (BChE) and acetylthiocholine iodide (ATCI), butyrylthiocholine iodide (BTCI), 5,5′-dithiobis-(2-nitrobenzoate) (DTNB), (4,5-dimethylthiazol-2-yl)-2,5-diphenyl tetrazolium (MTT) bromide and Dulbecco's modified Eagle's medium (DMEM) with 4.5 g/L glucose were obtained from Sigma-Aldrich Química S. A. Reagents used in cell culture, including nonessential amino acids (NEAA), heat inactivated fetal bovine serum (FBS), 0.05% trypsin/1 mM EDTA, antibiotic (10000 U/mL penicillin, 10,000 μg/mL streptomycin) and Hank's balanced salt solution (HBSS) were purchased from Gibco Laboratories. Dimethylsulfoxide (DMSO-d6), absolute ethanol and acetic acid were obtained from Merck. All reagents were of analytical grade or of the highest grade available.
(§2) Briefly, 100 μL of sodium phosphate buffer, 40 μL of DTNB, 20 μL of the test compounds/standard inhibitors and 20 μL of AChE or BChE were incubated for 5 min at 30°C in a 96-well microplate (BRANDplates, pureGradeTM, BRAND GMBH, Wertheim, Germany). After that, 20 μL of ATCI or BTCI was added, respectively. […] A control using 20 μL of sodium phosphate buffer instead of compound solution was also performed. The IC50 values were determined in triplicate from the dose-response inhibition curves and are expressed as mean ± standard deviation (SD).
(§3) ATCI and BTCI were used as substrates for AChE or BChE, respectively, generating thiocholine and acetate or butyrate.

BChE [2] = molecular target: T2, BChE (Homo sapiens, UniProt P06276); assay: biochemical
T2 construct: purchased Sigma-Aldrich Química S. A
T2 sequence (P06276 29-602, species assumed): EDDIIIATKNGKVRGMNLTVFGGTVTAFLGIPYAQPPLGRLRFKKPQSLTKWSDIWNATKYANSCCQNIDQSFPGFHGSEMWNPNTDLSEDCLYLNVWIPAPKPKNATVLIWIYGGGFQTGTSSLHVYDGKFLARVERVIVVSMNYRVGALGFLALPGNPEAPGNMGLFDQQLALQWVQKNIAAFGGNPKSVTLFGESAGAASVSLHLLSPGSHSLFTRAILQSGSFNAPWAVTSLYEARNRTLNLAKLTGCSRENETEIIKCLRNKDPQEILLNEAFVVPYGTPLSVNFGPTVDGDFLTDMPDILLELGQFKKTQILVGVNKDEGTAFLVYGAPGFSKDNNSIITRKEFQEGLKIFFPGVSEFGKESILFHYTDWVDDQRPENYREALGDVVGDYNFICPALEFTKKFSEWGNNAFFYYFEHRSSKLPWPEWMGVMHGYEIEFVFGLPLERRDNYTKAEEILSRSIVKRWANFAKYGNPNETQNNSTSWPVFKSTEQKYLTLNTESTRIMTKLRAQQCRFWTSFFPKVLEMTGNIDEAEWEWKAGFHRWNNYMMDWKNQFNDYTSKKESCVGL
From the text: as §1, §2, §3

SH-SY5Y cells [3] = assay: Cytotoxicity in differentiated SH-SY5Y cells (MTT reduction); format: cell-based, human; conditions: 24 h; for cellular metabolic activity (MTT reduction), cytotoxicity: differentiated SH-SY5Y, 1, 10 and 50 μM
Description: SH-SY5Y (ATCC, Manassas, VA, USA), a neuroblastoma cell line, was routinely cultured in 75-cm^2 flasks (Corning Costar, Corning, NY, USA) using DMEM with 4.5 g/L glucose, supplemented with 10% heat-inactivated FBS (v/v), 1% NEAA (v/v), 100 U/mL penicillin, and 100 μg/mL streptomycin. The cells used for all the experiments were taken between the 37th and 45th passages, to avoid phenotypic changes. […] Three days after seeding, the medium of cells was changed, adding cell culture medium with 0.1% of TPA for more 3 days before treatment.
(§4) The cytotoxicity profile of the compounds under study was evaluated in differentiated SH-SY5Y cells (8,000 cells/well), according the differentiation protocol previously described, and in HepG2 cells (2.5 × 10^4 cells/well), seeded into 96-well plates. […]. In both assays, the reduction of MTT tetrazolium salt or resazurin to MTT formazan or resorufin, respectively, by cellular dehydrogenases present in viable cells, gives insights on cell metabolic activity.
For the MTT assay, the cell culture medium was removed after the incubation time, followed by the addition of fresh cell culture medium containing 0.5 mg/mL MTT and incubation for 30 min. After this incubation period, the cell culture medium was removed, and the formed formazan crystals dissolved in DMSO. The absorbance was measured at 550 nm in a multi-well plate reader (BioTek Instruments, Vermont, USA). The percentage of MTT reduction relative to that of the control cells was used as the cytotoxicity measure [MTT reduction (% of control)] as means ± SEM of four independent experiments.

HepG2 cells = assay: Cytotoxicity in HepG2 cells (resazurin reduction); format: cell-based, human; conditions: 48 h; for cellular metabolic activity (resazurin reduction), cytotoxicity: HepG2, 1, 10 and 50 μM
Description: Human hepatocellular carcinoma cells (HepG2, ECACC, UK) were also used in this study. Cells were cultured in low-glucose medium (5 mM) composed by Dulbecco's modified Eagle's medium (DMEM, D5030) supplemented with sodium pyruvate (0.11 g/L), sodium bicarbonate (3.7 g/L), HEPES (1.19 g/L), 6 mM glutamine and 10% fetal bovine serum (FBS) and 1% of antibiotic penicillin-streptomycin 100 × solution. HepG2 (2.5 × 10^4 cells/well) cells were seeded in a 96-well plate and proliferate for 24 h before treatment.
as §4
Regarding the resazurin reduction assay, after the incubation time, the medium was replaced by fresh medium containing resazurin (10 μg/mL) prepared in sterile PBS (1X) and left to react for 1 h. The fluorescent signal was monitored using a 540 nm excitation wavelength and 590 nm emission wavelength in a Cytation 3 reader (BioTek Instruments Inc., USA). The percentage of resazurin reduction relative to that of the control cells was used as the cytotoxicity measure [resazurin reduction (% of control)] as means ± SEM of four independent experiments.

SH-SY5Y cells [4] = assay: Neuroprotection against Aβ1–42 peptide-induced cytotoxicity (resazurin reduction); conditions: for neuroprotective effect against Aβ1–42 peptide-induced cytotoxicity: 10 μM pre-treatment 24 h, then Aβ1–42 25 μM 48 h
Description: The antioxidant efficiency of the new HBAc derivatives was evaluated in the presence of Aβ1–42 peptide. […] Aβ1–42 aliquots were then stored at −20°C until use (enriched oligomeric Aβ1–42 preparation).
Undifferentiated SH-SY5Y cells were seeded onto 96-well plates (8000 cells/well) and differentiated as previously described. […] After incubation time, cellular metabolic activity was determined using the resazurin reduction assay as previously described.
Aβ aggregation, the pathological hallmark of AD, is the most targeted biomarker in drug discovery and development for AD.

BChE [5] = molecular target: T2, BChE; assay: BChE-inhibitor kinetics (Lineweaver-Burk and Dixon plots); format: biochemical
Description: (§5) To evaluate the mechanism of AChE and BChE inhibition of the most promising compounds substrate-dependent kinetic experiments were performed. […] The results are presented as double reciprocal Lineweaver-Burk plots (1/V vs. 1/[S]). The kinetic data, namely Km and Vmax, were acquired employing Michaelis-Menten equation. The Ki values were estimated using Dixon plots, by replotting the slope of each Lineweaver-Burk plot vs. the inhibitor concentration. In the Dixon plots, the Ki value was obtained from the x-axis intercept (–Ki). The enzymatic reactions and measurements were performed using the same AChE and BChE assay conditions as described above (determined in triplicate). Linear regression analysis was performed using GraphPad Prism 5.0 (GraphPad Software, Inc.).
(§6) In order to understand the AChE and BChE inhibitory mechanism of the most promising ChE inhibitors, kinetic experiments were performed. […] Graphical analysis of the reciprocal Lineweaver–Burk plots was used to determine Michaelis-Menten reaction kinetic parameters (Km and Vmax).

[6] = mean ± SD; ref Teixeira et al. ([2017a]); cited from earlier work
[7] = mean ± SD; ref Teixeira et al. ([2017a]); cited from earlier work; remark: listed apart in the source
[8] = ref Teixeira et al. ([2017a]); cited from earlier work
[9] = DPPH radical scavenging assay; conditions: mean ± SD, triplicate
Description: (§7) The IC50 values were determined in triplicate from the dose-response inhibition curves and are expressed as mean ± standard deviation (SD).

[10] = ABTS radical cation scavenging assay; conditions: mean ± SD, triplicate
Description: as §7

[11] = Redox properties by differential pulse and cyclic voltammetry; format: physicochemical; conditions: physiological pH 7.4, differential pulse voltammetry, glassy carbon electrode
Description: Voltammetric studies were performed using an Autolab PGSTAT12 potentiostat/galvanostat (Metrohm Autolab, Netherland) and a one-compartment glass electrochemical cell.

AChE [12] = molecular target: T1, AChE; assay: AChE-inhibitor kinetics (Lineweaver-Burk and Dixon plots); format: biochemical, Electrophorus electricus (electric eel)
Description: as §5, §6

[13] = mean ± SD, triplicate, 30°C, read-out: IC50 BChE
[14] = Lineweaver-Burk plots, Vmax decreased, Km unchanged

T1 sequence (O42275 24-633): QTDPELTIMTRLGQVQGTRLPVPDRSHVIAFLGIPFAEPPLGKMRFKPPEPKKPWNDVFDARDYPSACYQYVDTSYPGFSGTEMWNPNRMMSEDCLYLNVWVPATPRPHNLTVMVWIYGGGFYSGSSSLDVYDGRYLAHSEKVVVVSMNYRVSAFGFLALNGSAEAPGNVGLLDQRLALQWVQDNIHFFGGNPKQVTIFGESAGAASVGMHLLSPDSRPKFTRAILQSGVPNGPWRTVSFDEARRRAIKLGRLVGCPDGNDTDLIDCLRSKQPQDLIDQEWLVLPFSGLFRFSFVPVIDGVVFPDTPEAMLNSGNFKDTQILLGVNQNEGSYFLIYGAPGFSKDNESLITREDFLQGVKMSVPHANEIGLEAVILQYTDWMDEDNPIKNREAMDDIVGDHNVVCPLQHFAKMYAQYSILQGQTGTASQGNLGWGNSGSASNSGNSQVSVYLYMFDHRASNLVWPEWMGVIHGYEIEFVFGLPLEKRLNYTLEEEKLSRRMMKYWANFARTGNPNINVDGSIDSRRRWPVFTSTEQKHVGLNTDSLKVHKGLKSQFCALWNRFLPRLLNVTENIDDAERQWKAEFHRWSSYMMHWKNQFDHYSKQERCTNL

Row | Molecule | IC50 (AChE [1]) [µM] | SI: BChE selectivity index = IC50(AChE)/IC50(BChE) (BChE [2]) | cellular metabolic activity (MTT reduction), cytotoxicity (SH-SY5Y cells [3]) | cellular metabolic activity (resazurin reduction), cytotoxicity (HepG2 cells) | neuroprotective effect against Aβ1–42 peptide-induced cytotoxicity (SH-SY5Y cells [4]) | IC50 [9] [µM] | IC50 [10] [µM] | IC50 (BChE [2]) [µM] | Ep (oxidation potential) [11] [mV] | other results
1 | O=C(NCCCCCC[P+](c1ccccc1)(c1ccccc1)c1ccccc1)c1ccc(O)c(O)c1 [AntiOxBEN1] | > 50 | > 588 | dose-dependent toxicity | dose-dependent toxicity | significantly prevented Aβ1–42 peptide-induced dysfunction/cell death |  |  |  |  | effect on AChE (AChE [1]; at 50 μM): did not have any effect; IC50 (BChE [2]; [13]): 0.085 ± 0.005 µM; Ki (BChE [5]): 0.0295 µM; BChE inhibition mechanism (BChE [5]; [14]): non-competitive; IC50 [6]: 31 ± 0.8 µM; IC50 [7]: 20.7 ± 0.8 µM; Ep (oxidation potential) [8]: 219^* mV
2 | O=C(NCCCCCC[P+](c1ccccc1)(c1ccccc1)c1ccccc1)c1cc(O)c(O)c(O)c1 [AntiOxBEN2] | 40.5 ± 7 | 86 | did not alter cellular metabolic activity | did not alter cellular metabolic activity | more evident |  |  |  |  | IC50 (BChE [2]; [13]): 0.474 ± 0.017 µM; IC50 [6]: 14 ± 0.3 µM; IC50 [7]: 6.5 ± 0.5 µM; Ep (oxidation potential) [8]: 115^* mV
3 | O=C(NCCCCCCCC[P+](c1ccccc1)(c1ccccc1)c1ccccc1)c1ccc(O)c(O)c1.[Br-] [Compound 15, (8-(3,4-Dihydroxybenzamido)octyl)triphenylphosphonium bromide] | 11.2 ± 0.8 | 106 | dose-dependent toxicity | dose-dependent toxicity |  | 31.2 ± 0.9 | 23.5 ± 1.3 | 0.106 ± 0.005 | 216 | 
4 | O=C(NCCCCCCCC[P+](c1ccccc1)(c1ccccc1)c1ccccc1)c1cc(O)c(O)c(O)c1.[Br-] [Compound 16, (8-(3,4,5-Trihydroxybenzamido)octyl)triphenylphosphonium bromide] | 15.7 ± 0.9 | 62 | did not alter cellular metabolic activity | did not alter cellular metabolic activity | more evident | 16.8 ± 1.6 | 6.8 ± 0.6 | 0.255 ± 0.009 | 121 | 
5 | O=C(NCCCCCCCCCC[P+](c1ccccc1)(c1ccccc1)c1ccccc1)c1ccc(O)c(O)c1.[Br-] [Compound 17, (10-(3,4-Dihydroxybenzamido)decyl)triphenylphosphonium bromide] | 7.7 ± 0.4 |  | dose-dependent toxicity | dose-dependent toxicity | more evident | 31 ± 0.6 | 19.4 ± 1 | 0.195 ± 0.02 | 210 | 
6 | O=C(NCCCCCCCCCC[P+](c1ccccc1)(c1ccccc1)c1ccccc1)c1cc(O)c(O)c(O)c1.[Br-] [Compound 18, (10-(3,4,5-Trihydroxybenzamido)decyl)triphenylphosphonium bromide] | 7.2 ± 0.5 | 13 | did not alter cellular metabolic activity | did not alter cellular metabolic activity | significantly prevented Aβ1–42 peptide-induced dysfunction/cell death | 10.2 ± 1.1 | 7.4 ± 0.5 | 0.553 ± 0.022 | 114 | cellular metabolic activity (MTT reduction) (SH-SY5Y cells [3]; SH-SY5Y, 1 and 10 μM): slightly increased; cellular metabolic activity (resazurin reduction) (HepG2 cells; HepG2, 10 and 50 μM): slightly increased; Ki (AChE [12]): 6.6 µM; AChE inhibition mechanism (AChE [12]; [14]): non-competitive
7 | Aβ1–42 [reference compound] |  |  |  |  |  |  |  |  |  | decrease of cell viability compared to control (SH-SY5Y cells [4]; Aβ1–42 peptide 25 μM, 48 h, resazurin): about 28%
